In patent publication US20210222225A1, “Medium for Disk Diffusion Method to Evaluate Antibiotic Sensitivity” (priority 2018, published 2021):

Assays:
[1] = tested on: ABA A14_S; assay: Colistin disk diffusion, guanidine hydrochloride medium, A14_S; assay type: cell-based, Acinetobacter baumannii; details: 30% agar
Protocol: (§1) A concentration of agar particles (BD Diagnostic, Sparks, Md., USA) in Mueller-Hinton broth medium (BD Diagnostic) was adjusted to 5.1 g/L, which is 30% of 17 g/L, and guanidine hydrochloride was added to a concentration of 500 μg/ml, 50 μg/ml, or 5 μg/ml. Then, solidification was performed. On a surface of each medium thus prepared was evenly inoculated each of colistin-susceptible (S) or -resistant (R) Acinetobacter baumannii (ABA) strain, colistin-susceptible (S) or -resistant (R) Klebsiella pnemoniae (KPN) strain, and colistin-susceptible (S) or -resistant (R) Pseudomonas aeruginosa (PAE) strain, and a colistin disk was placed thereon. Then, pictures of a growth inhibition zone, which had been formed clear, around the disk were taken for each strain, and the results are illustrated in FIGS. 8 to 10.

[2] = tested on: KPN K4036_R; assay: Colistin disk diffusion, guanidine hydrochloride medium, K4036_R; assay type: cell-based, Klebsiella pnemoniae; details: 30% agar
Protocol: as §1

[3] = tested on: colistin-susceptible strains; assay: Colistin disk diffusion, colistin-susceptible strains as a group (average, differences); assay type: cell-based; details: for Average, diameter (mm) of colistin inhibition zone, colistin-susceptible strains / Difference (S vs ACB-R), diameter (mm) of colistin inhibition zone / Difference (S vs mcr-1), diameter (mm) of colistin inhibition zone: protamine 100 μg/ml
Protocol: To each MHA thus modified was added protamine (Sigma-Aldrich, St Louis, Mo., USA) at a concentration of 100 μg/ml, and solidification was performed. Then, on a surface of the medium was evenly inoculated each of colistin-susceptible (S) or -resistant (R) Acinetobacter calcoaceticus-baumannii complex (ACB) strain, Pseudomonas aeruginosa ATCC27853 strain, Escherichia coli ATCC25922 strain, and mcr-1-harboring Enterobacter aerogenes strain, and a colistin disk was placed thereon. Subsequently, a diameter of a growth inhibition zone (colistin inhibition zone), which had been formed clear by diffusion of colistin to the agar around the colistin disk, was measured.
(§2) As in Example 1, a concentration of agar particles (BD Diagnostic, Sparks, Md., USA) in Mueller-Hinton broth medium (BD Diagnostic) was adjusted to 5.1 g/L, which is 30% of 17 g/L, and protamine (Sigma-Aldrich, St Louis, Mo., USA) was added thereto at a concentration of 150 μg/ml or 100 μg/ml. Then, solidification was performed. To compare effects depending on concentrations of agar and protamine, Muller-Hinton agar medium (BD Diagnostic) containing agar at a concentration of 17 g/L and medium obtained by adding, to the Muller-Hinton agar medium, protamine at a concentration of 100 μg/ml were prepared as controls. On a surface of each medium thus prepared was evenly inoculated each of colistin-susceptible (S) or -resistant (R) Acinetobacter calcoaceticus-baumannii complex (ACB) strain, Pseudomonas aeruginosa ATCC27853 strain, and mcr-1-harboring Enterobacter aerogenes strain, and a colistin disk was placed thereon. Then, it was determined whether each strain was grown, and a diameter of a growth inhibition zone, which had been formed clear around the disk, was measured. The results are illustrated in FIG. 1.
The following four bacterial strains were used to determine conditions for agar: colistin-susceptible (S) or -resistant (R) Acinetobacter calcoaceticus-baumannii complex (ACB) strain (N=2), Pseudomonas aeruginosa ATCC27853 strain, and mcr-1-harboring Enterobacter aerogenes strain. A concentration of agar particles (BD Diagnostic, Sparks, Md., USA) in Mueller-Hinton broth medium (BD Diagnostic) was adjusted to 17 g/L or 5.1 g/L that is 30% of 17 g/L. To each modified MHA was added protamine (Sigma-Aldrich, St Louis, Mo., USA) at a concentration of 100 μg/ml.
On a surface of each medium thus prepared was evenly inoculated each of colistin-susceptible (S) or -resistant (R) Acinetobacter calcoaceticus-baumannii complex (ACB) strain, Pseudomonas aeruginosa ATCC27853 strain, and mcr-1-harboring Enterobacter aerogenes strain, and a colistin disk was placed thereon. Then, it was determined whether each strain was grown, and a diameter of a colistin inhibition zone, which had been formed clear around the disk, was measured. The results are illustrated in FIGS. 2A and 2B. Pictures of an inhibition zone around the disk were taken for each strain, and the results are illustrated in FIGS. 3A, 3B, 4A, 4B, 5A, 5B, 6A and 6B.

[4] = tested on: colistin-resistant strains; assay: Colistin disk diffusion, colistin-resistant strains as a group; assay type: cell-based
Protocol: as §2, with “On a surface of each medium thus prepared was evenly inoculated each of colistin-susceptible (S) or -resistant (R) Acinetobacter calcoaceticus-baumannii complex (ACB) strain, Pseudomonas aeruginosa ATCC27853 strain, and mcr-1-harboring Enterobacter aerogenes strain, and a colistin disk was placed thereon.” left out, “The results are illustrated in FIG. 1.” left out
On a surface of each medium thus prepared was evenly inoculated each of colistin-susceptible (S) or -resistant (R) Acinetobacter calcoaceticus-baumannii complex (ACB) strain, Pseudomonas aeruginosa ATCC27853 strain, and mcr-1-harboring Enterobacter aerogenes strain, and a colistin disk was placed thereon. Then, it was determined whether each strain was grown, and a diameter of a colistin inhibition zone, which had been formed clear around the disk, was measured. […]

[5] = tested on: PAE P1618_R; assay: Colistin disk diffusion, guanidine hydrochloride medium, P1618_R; assay type: cell-based, Pseudomonas aeruginosa; details: 30% agar
Protocol: as §1

[6] = tested on: KPN K4056_R; assay: Colistin disk diffusion, guanidine hydrochloride medium, K4056_R; assay type: cell-based, Klebsiella pnemoniae; details: 30% agar
Protocol: as §1

[7] = guanidine hydrochloride 5 μg/ml
[8] = guanidine hydrochloride 50 μg/ml
[9] = guanidine hydrochloride 500 μg/ml
[10] = agar 5.1 g/L (30%) compared with 17 g/L, FIG. 1
[11] = agar 5.1 g/L and protamine 100 μg/ml compared with agar 17 g/L, FIGS. 2A to 6B

Substance: colistin
- Disk diffusion (mm) [1, 7]: 15 mm
- Disk diffusion (mm) [1, 8]: 15 mm
- Disk diffusion (mm) [1, 9]: 15 mm
- Disk diffusion (mm) [2, 7]: 16 mm
- Disk diffusion (mm) [2, 8]: 16 mm
- Disk diffusion (mm) [2, 9]: 14 mm
- Average, diameter (mm) of colistin inhibition zone, colistin-susceptible strains ([3]; 30% agar): 16 mm
- Difference (S vs ACB-R), diameter (mm) of colistin inhibition zone ([3]; 30% agar): 5 mm
- Difference (S vs mcr-1), diameter (mm) of colistin inhibition zone ([3]; 30% agar): 5 mm
- Average, diameter (mm) of colistin inhibition zone, colistin-susceptible strains ([3]; 40% agar): 15 mm
- Difference (S vs ACB-R), diameter (mm) of colistin inhibition zone ([3]; 40% agar): 4 mm
- Difference (S vs mcr-1), diameter (mm) of colistin inhibition zone ([3]; 40% agar): 5 mm
- Average, diameter (mm) of colistin inhibition zone, colistin-susceptible strains ([3]; 50% agar): 14 mm
- Difference (S vs ACB-R), diameter (mm) of colistin inhibition zone ([3]; 50% agar): 4 mm
- Difference (S vs mcr-1), diameter (mm) of colistin inhibition zone ([3]; 50% agar): 3 mm
- Average, diameter (mm) of colistin inhibition zone, colistin-susceptible strains ([3]; 60% agar): 14 mm
- Difference (S vs ACB-R), diameter (mm) of colistin inhibition zone ([3]; 60% agar): 1 mm
- Difference (S vs mcr-1), diameter (mm) of colistin inhibition zone ([3]; 60% agar): 4 mm
- Average, diameter (mm) of colistin inhibition zone, colistin-susceptible strains ([3]; 70% agar): 14 mm
- Difference (S vs ACB-R), diameter (mm) of colistin inhibition zone ([3]; 70% agar): 3 mm
- Difference (S vs mcr-1), diameter (mm) of colistin inhibition zone ([3]; 70% agar): 4 mm
- Average, diameter (mm) of colistin inhibition zone, colistin-susceptible strains ([3]; 80% agar): 13 mm
- Difference (S vs ACB-R), diameter (mm) of colistin inhibition zone ([3]; 80% agar): 1 mm
- Difference (S vs mcr-1), diameter (mm) of colistin inhibition zone ([3]; 80% agar): 4 mm
- Average, diameter (mm) of colistin inhibition zone, colistin-susceptible strains ([3]; 90% agar): 13 mm
- Difference (S vs ACB-R), diameter (mm) of colistin inhibition zone ([3]; 90% agar): 1 mm
- Difference (S vs mcr-1), diameter (mm) of colistin inhibition zone ([3]; 90% agar): 3 mm
- Average, diameter (mm) of colistin inhibition zone, colistin-susceptible strains ([3]; 100% agar): 13 mm
- Difference (S vs ACB-R), diameter (mm) of colistin inhibition zone ([3]; 100% agar): 2 mm
- Difference (S vs mcr-1), diameter (mm) of colistin inhibition zone ([3]; 100% agar): 3 mm
- size of a growth inhibition zone in the colistin-susceptible strains [3, 10]: increased
- diameter of the growth inhibition zone in the colistin-susceptible strains [3, 11]: remarkably increased
- size of a growth inhibition zone in the colistin-resistant strains [4, 10]: maintained
- size of the growth inhibition zone in the colistin-resistant strains [4, 11]: no changes
- Disk diffusion (mm) [5, 7]: 12 mm
- Disk diffusion (mm) [5, 8]: 13 mm
- Disk diffusion (mm) [5, 9]: 13 mm
- Disk diffusion (mm) [6, 7]: 12 mm
- Disk diffusion (mm) [6, 8]: 12 mm
- Disk diffusion (mm) [6, 9]: 10 mm
